“Also recorded” adds a separate entry of the source. Read-outs that look alike come from different tables or passages of the source. Marks after values point to notes of the source that are not given here.
Test: Phase 1/2 clinical study: pharmacokinetics in cancer patients
Assay type: in vivo, human
Details: for AUC(0-t) / half-life / Cmax / Tmax / concentration at 0 h / concentration at 1 h / concentration at 2 h / concentration at 4 h / concentration at 8 h / concentration at 24 h: human, plasma, oral; for Cmax: read-out: Cmax Geo mean (% CV); for Tmax: read-out: Tmax Median (min, max); for concentration at 0 h / concentration at 1 h / concentration at 2 h / concentration at 4 h / concentration at 8 h / concentration at 24 h: read-out: Mean patient plasma CONC (SD); for concentration at 24 h: 24 hr (not measured, inferred based on predose)
Text: The study is an open-label, multi-center study of oral BTK-I to evaluate safety and efficacy as monotherapy and as part of combination therapy in patients with CLL/SLL and NHL who have failed or are intolerant to standard of care. This study includes monotherapy as well as combination treatment parts. The monotherapy part includes Phase 1 dose escalation and dose expansion as well as Phase 2. The combination therapy part is a Phase 1b (safety assessment and expansion) of BTK-I in combination with venetoclax, with or without anti-CD20 therapy. Phase 1 dose escalation will proceed prior to start of Phase 1b or Phase 2. Once a recommended Phase 2 dose (RP2D) is identified in Phase 1, enrollment can commence to the Phase 1b combination therapies and Phase 2 monotherapy cohorts.
BTK-I is administered in oral tablet form. Dose escalation will follow a 3+3 design starting with a 25 mg QD dose (followed by 50 mg QD (dose level cohort 2), 100 mg QD (dose level cohort 3), 150 mg QD (dose level cohort 4), 200 mg QD (dose level cohort 5), 250 mg QD (dose level cohort 6), and 300 mg QD (dose level cohort 7)). Cycle length will be 28 days. The drug limiting toxicity (DLT) period will be 28 days, commencing with the first dose of BTK-I.
The pharmacokinetic profiles and adverse events for BTK-I doses are summarized in the below tables.
Pharmacokinetic Parameters of BTK-I—in Cancer Patients at Steady State (Cycle 1 Day 8)

[1] = 250 mg QD, steady state (Cycle 1 Day 8), N=25
[2] = 25 mg QD, steady state (Cycle 1 Day 8), N=5
[3] = 50 mg QD, steady state (Cycle 1 Day 8), N=6
[4] = 100 mg QD, steady state (Cycle 1 Day 8), N=9
[5] = 150 mg QD, steady state (Cycle 1 Day 8), N=20
[6] = 200 mg QD, steady state (Cycle 1 Day 8), N=99
[7] = 300 mg QD, steady state (Cycle 1 Day 8), N=17

## COc1ccc(F)cc1C(=O)NCc1ccc(-c2nn([C@@H](C)C(F)(F)F)c(N)c2C(N)=O)cc1 [BTK-I, (S)-5-amino-3-(4-((5-fluoro-2-methoxybenzamido)methyl)phenyl)-1-(1,1,1-trifluoropropane-2-yl)-1H-pyrazole-4-carboxamide]
25 mg QD (N = 5)
  Ratio AUC0-8 Day 8/Day 1 Geo mean (% CV): 1.44 (23.0%)
25 mg QD, steady state (Cycle 1 Day 8), N = 4, % CV 69.6%
  CL/F Geo mean (% CV): 1.55^a (69.6%) L/h
25 mg to 300 mg daily
  dose dependence of exposure (Cmax and AUC): dose-5 dependent and linear increases in BTK-I exposure; also recorded: linear dose-proportional exposures
  interpatient variability of exposure: low interpatient variability
50 mg QD (N = 6)
  Ratio AUC0-8 Day 8/Day 1 Geo mean (% CV): 1.51 (25.9%)
50 mg QD, steady state (Cycle 1 Day 8), N = 5, % CV 36.7%
  CL/F Geo mean (% CV): 2.62^b (36.7%) L/h
100 mg QD (N = 9)
  Ratio AUC0-8 Day 8/Day 1 Geo mean (% CV): 1.88 (42.8%)
100 mg QD, steady state (Cycle 1 Day 8), N = 8, % CV 63.0%
  CL/F Geo mean (% CV): 0.968^c (63.0%) L/h
150 mg QD (N = 20)
  Ratio AUC0-8 Day 8/Day 1 Geo mean (% CV): 1.74 (24.9%)
150 mg QD, steady state (Cycle 1 Day 8), N = 18, % CV 51.8%
  T1/2 Geo mean (% CV): 18.l^d (51.8%)
150 mg QD, steady state (Cycle 1 Day 8), N = 18, % CV 66.7%
  CL/F Geo mean (% CV): 1.36^d (66.7%) L/h
200 mg QD
  trough steady-state exposure relative to BTK IC96: BTK IC96 target coverage
200 mg QD, N = 73, % CV 29.6%
  Ratio AUC0-8 Day 8/Day 1 Geo mean (% CV): 1.69^h (29.6%)^
200 mg QD, steady state (Cycle 1 Day 8), N = 64, % CV 61.8%
  CL/F Geo mean (% CV): 1.14^e (61.8%) L/h
250 mg QD (N = 25)
  Ratio AUC0-8 Day 8/Day 1 Geo mean (% CV): 1.68 (24.5%)
250 mg QD, steady state (Cycle 1 Day 8), N = 21, % CV 1.08%
  CL/F Geo mean (% CV): 1.26^f (1.08%) L/h
[1]
  Cmax Geo mean (% CV): 8100 (28.1%) ng/mL
  Tmax: 2 h
300 mg QD, N=17
  Ratio AUC0-8 Day 8/Day 1 Geo mean (% CV): 2.15 (31.2%)
300 mg QD, steady state (Cycle 1 Day 8), N = 16, % CV 42.5%
  CL/F Geo mean (% CV): 1.63^g (42.5%) L/h
25 mg, 25 mg QD, steady state (Cycle 1 Day 8), N=5, read-out: AUC0-8 Geo mean (% CV)
  AUC(0-t): 4240 ng·h/mL
25 mg, 25 mg QD, steady state (Cycle 1 Day 8), N=5, read-out: AUC0-24 Geo mean (% CV)
  AUC(0-t): 9800 ng·h/mL
50 mg, 50 mg QD, steady state (Cycle 1 Day 8), N=6, read-out: AUC0-8 Geo mean (% CV)
  AUC(0-t): 8660 ng·h/mL
50 mg, 50 mg QD, steady state (Cycle 1 Day 8), N=6, read-out: AUC0-24 Geo mean (% CV)
  AUC(0-t): 20100 ng·h/mL
100 mg, 100 mg QD, steady state (Cycle 1 Day 8), N=9, read-out: AUC0-8 Geo mean (% CV)
  AUC(0-t): 22000 ng·h/mL
100 mg, 100 mg QD, steady state (Cycle 1 Day 8), N=9, read-out: AUC0-24 Geo mean (% CV)
  AUC(0-t): 52400 ng·h/mL
150 mg, 150 mg QD, steady state (Cycle 1 Day 8), N=20, read-out: AUC0-8 Geo mean (% CV)
  AUC(0-t): 28000 ng·h/mL
150 mg, 150 mg QD, steady state (Cycle 1 Day 8), N=20, read-out: AUC0-24 Geo mean (% CV)
  AUC(0-t): 64400 ng·h/mL
200 mg, 200 mg QD, steady state (Cycle 1 Day 8), N=99, read-out: AUC0-8 Geo mean (% CV)
  AUC(0-t): 36900 ng·h/mL
200 mg, 200 mg QD, steady state (Cycle 1 Day 8), N=99, read-out: AUC0-24 Geo mean (% CV)
  AUC(0-t): 91000 ng·h/mL
250 mg, 250 mg QD, steady state (Cycle 1 Day 8), N=25, read-out: AUC0-8 Geo mean (% CV)
  AUC(0-t): 49700 ng·h/mL
250 mg, 250 mg QD, steady state (Cycle 1 Day 8), N=25, read-out: AUC0-24 Geo mean (% CV)
  AUC(0-t): 111000 ng·h/mL
300 mg, 300 mg QD, steady state (Cycle 1 Day 8), N=17, read-out: AUC0-8 Geo mean (% CV)
  AUC(0-t): 65800 ng·h/mL
300 mg, 300 mg QD, steady state (Cycle 1 Day 8), N=17, read-out: AUC0-24 Geo mean (% CV)
  AUC(0-t): 158000 ng·h/mL
25 mg QD, steady state (Cycle 1 Day 8), N = 4, % CV 60.1%, read-out: T1/2 Geo mean (% CV) (converted)
  half-life: 18.2 h
[2]
  Cmax: 734 ng/mL
  Tmax: 2 h
25 mg
  concentration at 0 h: 263 ng/mL
  concentration at 1 h: 572 ng/mL
  concentration at 2 h: 650 ng/mL
  concentration at 4 h: 538 ng/mL
  concentration at 8 h: 495 ng/mL
  concentration at 24 h: 263 ng/mL
50 mg QD, steady state (Cycle 1 Day 8), N = 5, % CV 39.6%, read-out: T1/2 Geo mean (% CV) (converted)
  half-life: 17.6 h
[3]
  Cmax: 1420 ng/mL
  Tmax: 1.5 h
50 mg
  concentration at 0 h: 571 ng/mL
  concentration at 1 h: 1150 ng/mL
  concentration at 2 h: 1300 ng/mL
  concentration at 4 h: 1170 ng/mL
  concentration at 8 h: 1020 ng/mL
  concentration at 24 h: 571 ng/mL
100 mg QD, steady state (Cycle 1 Day 8), N = 8, % CV 33.9%, read-out: T1/2 Geo mean (% CV) (converted)
  half-life: 22.2 h
[4]
  Cmax: 3910 ng/mL
  Tmax: 2 h
100 mg
  concentration at 0 h: 1580 ng/mL
  concentration at 1 h: 2170 ng/mL
  concentration at 2 h: 3670 ng/mL
  concentration at 4 h: 2800 ng/mL
  concentration at 8 h: 2360 ng/mL
  concentration at 24 h: 1580 ng/mL
[5]
  Cmax: 4680 ng/mL
  Tmax: 2 h
150 mg
  concentration at 0 h: 1800 ng/mL
  concentration at 1 h: 3670 ng/mL
  concentration at 2 h: 4640 ng/mL
  concentration at 4 h: 3660 ng/mL
  concentration at 8 h: 3320 ng/mL
  concentration at 24 h: 1800 ng/mL
200 mg QD, steady state (Cycle 1 Day 8), N = 64, % CV 56.2%, read-out: T1/2 Geo mean (% CV) (converted)
  half-life: 19.9 h
[6]
  Cmax: 5770 ng/mL
  Tmax: 2 h
200 mg
  concentration at 0 h: 2770 ng/mL
  concentration at 1 h: 4940 ng/mL
  concentration at 2 h: 6160 ng/mL
  concentration at 4 h: 5270 ng/mL
  concentration at 8 h: 4660 ng/mL
  concentration at 24 h: 2770 ng/mL
250 mg QD, steady state (Cycle 1 Day 8), N = 21, % CV 50.6%, read-out: T1/2 Geo mean (% CV) (converted)
  half-life: 17.4 h
250 mg
  concentration at 0 h: 3160 ng/mL
  concentration at 1 h: 6910 ng/mL
  concentration at 2 h: 7870 ng/mL
  concentration at 4 h: 6840 ng/mL
  concentration at 8 h: 5500 ng/mL
  concentration at 24 h: 3160 ng/mL
300 mg QD, steady state (Cycle 1 Day 8), N = 16, % CV 102%, read-out: T1/2 Geo mean (% CV) (converted)
  half-life: 30.1 h
[7]
  Cmax: 10700 ng/mL
  Tmax: 2 h
300 mg
  concentration at 0 h: 5510 ng/mL
  concentration at 1 h: 9730 ng/mL
  concentration at 2 h: 10700 ng/mL
  concentration at 4 h: 8420 ng/mL
  concentration at 8 h: 7510 ng/mL
  concentration at 24 h: 5510 ng/mL
patients, read-out: observed half-life (converted)
  half-life: ~20 h
Starting at the 50 mg QD dose, estimates from cell-based potencies
  target coverage for wild-type and C481S-mutated BTK: delivered >IC90 target coverage

Reference: patent US12551463B2, “Dosing of a Bruton's tyrosine kinase inhibitor” (Loxo Oncology, Inc., priority 2019, dated 2026)
